In brackets after ≈: the same amount, converted by molar mass. Read-outs that look alike come from different tables or passages of the source.
What was measured:
[1] = test system: E. coli MG1655; experiment: Minimal inhibitory concentration (MIC), micro-dilution; assay type: cell-based, Escherichia coli; conditions: inoculum 2×10^8 cfu/ml, 24 h, liquid MH medium, 37°C
Procedure: E. coli K-12 MG1655 was used for all experiments, grown in liquid Mueller-Hilton (MH) agar or agarose, unless otherwise indicated. All experiments were carried out at 37°C.
MICs were determined according to CLSI recommendations by a micro-dilution method with the exception that the inoculum size that was adjusted to 2×10^8 cfu/ml from a regrowth of overnight cultures to be consistent with the mutagenesis experiments. […] Polypropylene non-binding plates (Th. Geyer, Germany) were used for all experiments.

[2] = test system: E. coli stress response genes (strain MG1655); experiment: Relative gene expression of stress response genes by quantitative real-time PCR; assay type: cell-based, Escherichia coli; conditions: qPCR; for Result, cpxA / Result, cpxR / Result, dinB / Result, lexA / Result, marR / Result, oxyR / Result, phoP / Result, phoQ / Result, recA / Result, rpoE / Result, rpoS / Result, umuC / Expression, cpxA (Envelope stress) / Expression, cpxR (Envelope stress) / Expression, dinB (SOS response) / Expression, lexA (SOS response) / Expression, marR (Independent multiple antibiotic resistance) / Expression, oxyR (Oxidative stress) / Expression, phoP (Envelope stress) / Expression, phoQ (Envelope stress) / Expression, recA (SOS response) / Expression, rpoE (Envelope stress) / Expression, rpoS (Sigma S response) / Expression, umuC (SOS response): 20 minutes exposure vs non-treated bacteria; for Result, cpxA / Result, cpxR / Result, dinB / Result, lexA / Result, marR / Result, oxyR / Result, phoP / Result, phoQ / Result, recA / Result, rpoE / Result, rpoS / Result, umuC: REST 2009 randomisation test; for Expression, cpxA (Envelope stress) / Expression, cpxR (Envelope stress) / Expression, dinB (SOS response) / Expression, lexA (SOS response) / Expression, marR (Independent multiple antibiotic resistance) / Expression, oxyR (Oxidative stress) / Expression, phoP (Envelope stress) / Expression, phoQ (Envelope stress) / Expression, recA (SOS response) / Expression, rpoE (Envelope stress) / Expression, rpoS (Sigma S response) / Expression, umuC (SOS response): normalized to arcA, mdoG, tus, Pexiganan 16, Melittin 16, Kanamycin 16, Ciprofloxacin 0.5, Lysozyme 128, Ampicillin 32 μg/ml, three biological replicates; for Result, cpxR: key: NDE: non-differentially expressed, p-value ≥ 0,05; UP: upregulated, p-value ≤ 0,05; DOWN: downregulated, p-value ≤ 0,05; for Result, oxyR: key: NDE: non-differentially expressed, p-value ≥ 0,05; UP: upregulated, p-value ≤ 0,05; DOWN: downregulated, p-value ≤ 0,05; for Result, rpoE: key: NDE: non-differentially expressed, p-value ≥ 0,05; UP: upregulated, p-value ≤ 0,05; DOWN: downregulated, p-value ≤ 0,05
Procedure: Preparation of each of the six treatments and the control samples was carried out by two operators on three consecutive days, thereby comprising three biological replicates for each of the six experimental and one control groups. To obtain the starting material for the experiment, a fresh bacterial culture was grown from a glycerol stock on Mueller-Hinton (MH) agar plates at 37°C for 18–24 hours. One well-isolated colony per biological replicate was used to inoculate 2 ml of liquid MH (Sigma) in a 10 ml sterile polypropylene tube and incubated at 37°C for 16 hours with mild shaking. The overnight (ON) culture was then diluted 1∶100 in MH, subdivided into seven 10 ml aliquots and incubated in 50 ml-Falcon tubes at 37°C for 2.5 hours at 220 rpm. When the OD600 of bacterial cultures reached 0.5–0.7, respective antibiotics and AMPs were added to a concentration to match with those used in the mutagenesis experiments. These bacterial cultures were incubated for 20 minutes at 37°C with gentle shaking. Two ml of bacterial cultures from each treatment and the control were collected, immediately centrifuged at 10000 g for 2 minutes and the supernatant was removed to stop the treatment. The bacterial pellet was then resuspended in 1 ml MH, followed by an addition of 1 ml of RNAprotect Bacteria Reagent (Qiagen), 5 minutes incubation and centrifugation at 10000 g for 2 minutes at room temperature. The supernatant was discarded and the bacterial pellet was immediately frozen and stored at −80°C until RNA extraction.
Total RNA was isolated using RNeasy kit (Qiagen) according to the manufacturer's instructions and eluted in 50 µl of RNase-free water. The nucleic acid yield and purity were determined by measuring the optical density at A260/280 using a Nanodrop spectrophotometer (Thermo Scientific). RNA samples were treated with TURBO DNase (Life Technologies). Briefly, ten µg of RNA were used in a total volume of 500 µl containing 20 units of TURBO DNase, incubated for 30 minutes at 37°C, immediately followed by RNeasy (Qiagen) cleanup and elution in 30 µl of RNase-free water. Following DNase treatment, RNA integrity was assessed using Agilent RNA 6000 Nano kit and 2100 Bioanalyzer instrument (both Agilent Technologies).
High-Capacity cDNA Reverse Transcription Kit with RNase Inhibitor (Applied Biosystems) was used for cDNA synthesis. Initially, to ensure linear conversion of the transcripts, the dynamic range of reverse transcription reaction was tested by performing a standard curve with cDNA, synthesised using various input amounts of pooled RNA. Total RNA (250 ng per reaction) and random primers were used for cDNA synthesis. To obtain sufficient amount of cDNA, several batches of 20 µl RT reactions were pooled, diluted 50-fold with RNase-free water and stored in single-use aliquots at −80°C until further use. All 21 samples were tested for presence of contaminating genomic DNA by running the mdoG assay with cDNA and the respective no reverse transcription (−RT) controls.
Escherichia coli strain K-12 substrain MG1655 complete genome (accession U00096) sequence was downloaded from NCBI database (www.ncbi.nlm.nih.gov) and used for primer design. Target sequence accession number, location of the amplicon, amplicon length and primer sequences for each assay can be found in table S2. Primers were designed using Primer Express software (Applied Biosystems) and optimized for annealing temperature of 60°C. Each primer pair and amplicon were checked for secondary structure formation using Oligo Tool (Integrated DNA technologies, http://eu.idtdna.com/analyzer/Applications/OligoAnalyzer/).

[3] = test system: E. coli MG1655; experiment: microbe, parasite or virus in culture; assay type: cell-based, Escherichia coli; conditions: 4 hours, 50% reduction of CFUs vs control, Mueller Hinton Broth, 37°C, five replicates, repeated twice
Procedure: The MIC50s for all antimicrobials were determined by inoculating strains grown to mid-log phase into the wells of a 96-microwell plate. Approximately 10^2 cells from overnight cultures were inoculated into tubes containing 10 ml of Mueller Hinton Broth medium, and the tubes were incubated at 37°C with strong shaking until the mid-log phase of growth (approximately 10^8 cells/ml). […] The plates were incubated at 37°C for 4 h with continuous shaking in a plate reader (Synergy 2, BioTeK). After four hours, aliquots from wells with OD^600 readings ranging from 10 to 90% values in comparison with the control, were serially diluted in sterile 0.9% NaCl, and incubated during 1 hour to allow the resolution of filaments as consequence of SOS activation, if any. Bacterial suspensions were plated in Mueller Hinton Broth agar plates to estimate the viability as colony forming units (CFUs). Five replicates per concentration were prepared and the experiments were repeated twice.

[4] = test system: E. coli stress response genes; conditions: cited from earlier work
[5] = norfloxacin 250 ng/ml, 30 min, ref Kohanski,2007
[6] = norfloxacin 250 ng/ml, 60 min, ref Kohanski,2007
[7] = norfloxacin 15 μg/ml, 20 min, gyrA+/parCr, ref Peter,2004
[8] = norfloxacin 15 μg/ml, 30min, gyrAr/parCCr cells, ref Peter,2004
[9] = Escherichia coli, read-out: MIC50
[10] = ampicillin 5 μg/ml, 120 min, ref Kohanski,2007

Compound	Result, cpxA [2]	Result, cpxR [2]	Result, dinB [2]	Result, lexA [2]	Result, marR [2]	Result, oxyR [2]	Result, phoP [2]	Result, phoQ [2]	Result, recA [2]	Expression, cpxA (Envelope stress) [2]	Expression, cpxR (Envelope stress) [2]	Expression, dinB (SOS response) [2]	Expression, lexA (SOS response) [2]	Expression, oxyR (Oxidative stress) [2]	Expression, phoP (Envelope stress) [2]	Expression, phoQ (Envelope stress) [2]	Expression, recA (SOS response) [2]	Expression, rpoE (Envelope stress) [2]	Expression, rpoS (Sigma S response) [2]	Expression, umuC (SOS response) [2]	also measured
Human lysozyme: human lysozyme obtained from Sigma	NDE	NDE	NDE	NDE	NDE	NDE	NDE	NDE	NDE	0.902	0.908	1.116	1.18	1.334	0.794	0.667	1.27	0.784	0.899	1.056	MIC [1]: 20 µg/mL; Result, rpoE [2]: NDE; Result, rpoS [2]: NDE; Result, umuC [2]: NDE; Expression, marR (Independent multiple antibiotic resistance) [2]: 0.633; MIC50 [3]: 12.8 µg/mL
CCn1cc(C(=O)O)c(=O)c2cc(F)c(N3CCNCC3)cc21 [norfloxacin]																					expression, recA (microarray database) ([4]; norfloxacin 0.12 μg/ml, 30 min, ref Shaw,2003): 11.1; expression, rpoE (microarray database) [4, 5]: -2.308; expression, rpoS (microarray database) [4, 5]: -2.24; expression, cpxR (microarray database) [4, 6]: -2.588; expression, phoP (microarray database) [4, 6]: -2.179; expression, phoQ (microarray database) ([4]; norfloxacin 15 μg/ml, 4 min, gyrA+/parC+, ref Peter,2004): -2.778; expression, cpxA (microarray database) ([4]; norfloxacin 15 μg/ml, 10 min, gyrA+/parCr, ref Peter,2004): -2.439; expression, dinB (microarray database) [4, 7]: 2.57; expression, oxyR (microarray database) [4, 7]: 4.05; expression, lexA (microarray database) [4, 8]: 5; expression, umuC (microarray database) [4, 8]: 8.421; expression, marR (microarray database) ([4]; norfloxacin (30min) / spectinmycin, 250 ng/ml, 30 min, spectinomycin (400 μg/ml), ref Kohanski,2007): -3.206
CC1(C)S[C@@H]2[C@H](NC(=O)[C@H](N)c3ccccc3)C(=O)N2[C@H]1C(=O)O [Ampicillin]	NDE	NDE	NDE	NDE	UP (2.5-fold)	NDE	NDE	NDE		1.083	0.988	1.623	1.563	0.923	1.026	0.96	1.627	0.815	1.31	1.373	MIC ([1]; Escherichia coli, read-out: MIC): 4 µg/mL (≈ 11.4 µM); Expression, marR (Independent multiple antibiotic resistance) [2]: 2.498; MIC50 [3, 9]: 3.2 µg/mL; expression, lexA (microarray database) [4, 10]: 2.143; expression, marR (microarray database) [4, 10]: 4.064; expression, phoP (microarray database) [4, 10]: -2.302; expression, rpoS (microarray database) [4, 10]: -2.26; expression, rpoE (microarray database) ([4]; ampicillin 25 μg/ml, 30 min, ref Shaw,2003): -4.545
CC[C@H](C)[C@H](NC(=O)[C@H](CCCCN)NC(=O)[C@H](CCC(=O)O)NC(=O)[C@H](CCCCN)NC(=O)[C@H](CO)NC(=O)[C@H](CCCCN)NC(=O)[C@H](CCCNC(=N)N)NC(=O)[C@H](Cc1ccccc1)NC(=O)[C@H](Cc1ccccc1)NC(=O)[C@H](CC(=O)O)NC(=O)CNC(=O)[C@H](CC(C)C)NC(=O)[C@@H](N)CC(C)C)C(=O)NCC(=O)N[C@@H](CCCCN)C(=O)N[C@@H](CCC(=O)O)C(=O)N[C@@H](Cc1ccccc1)C(=O)N[C@@H](CCCCN)C(=O)N[C@@H](CCCNC(=N)N)C(=O)N[C@H](C(=O)N[C@H](C(=O)N[C@@H](CCC(N)=O)C(=O)N[C@@H](CCCNC(=N)N)C(=O)N[C@H](C(=O)N[C@@H](CCCCN)C(=O)N[C@@H](CC(=O)O)C(=O)N[C@@H](Cc1ccccc1)C(=O)N[C@@H](CC(C)C)C(=O)N[C@@H](CCCNC(=N)N)C(=O)N[C@@H](CC(N)=O)C(=O)N[C@@H](CC(C)C)C(=O)N[C@H](C(=O)N1CCC[C@H]1C(=O)N[C@@H](CCCNC(=N)N)C(=O)N[C@H](C(=O)N[C@@H](CCC(=O)O)C(=O)N[C@@H](CO)C(=O)O)[C@@H](C)O)C(C)C)[C@@H](C)CC)C(C)C)[C@@H](C)CC [LL-37]																					MIC50 [3]: 8 µg/mL
O=C(O)c1cn(C2CC2)c2cc(N3CCNCC3)c(F)cc2c1=O [Ciprofloxacin]	DOWN (2.25-fold)	NDE	UP (14.2-fold)	UP (10.5-fold)	DOWN (5.35-fold)	NDE	NDE	NDE	UP (66.6-fold)	0.443	0.425	14.157	10.527	3.552	0.655	0.48	66.583	0.391	0.479	11.255	fold downregulation, cpxA ([2]; 20 minutes exposure): 2.25 fold; fold downregulation, marR ([2]; 20 minutes exposure): 5.35 fold; fold downregulation, rpoS ([2]; 20 minutes exposure): 2.08 fold; fold upregulation, dinB ([2]; 20 minutes exposure): 14.2 fold; fold upregulation, lexA ([2]; 20 minutes exposure): 10.5 fold; fold upregulation, recA ([2]; 20 minutes exposure): 66.6 fold; fold upregulation, umuC ([2]; 20 minutes exposure): 11.26 fold; Result, rpoE [2]: NDE; Result, rpoS [2]: DOWN (2.08-fold); Result, umuC [2]: UP (11.26-fold); MIC50 [3, 9]: 0.05 µg/mL

From publication PMC4192597, “Antimicrobials, Stress and Mutagenesis” (PLoS Pathogens, 2014)
